The target in assay [1] is T1, Serine palmitoylCoA transferase (SPT) (Mus musculus, UniProt O35704+P97363).
T1 construct: from tissue; host or cells: small intestine homogenate of C57BL/6J WT and apoE KO mice fed chow with or without myriocin
T1 sequence (O35704 1-473): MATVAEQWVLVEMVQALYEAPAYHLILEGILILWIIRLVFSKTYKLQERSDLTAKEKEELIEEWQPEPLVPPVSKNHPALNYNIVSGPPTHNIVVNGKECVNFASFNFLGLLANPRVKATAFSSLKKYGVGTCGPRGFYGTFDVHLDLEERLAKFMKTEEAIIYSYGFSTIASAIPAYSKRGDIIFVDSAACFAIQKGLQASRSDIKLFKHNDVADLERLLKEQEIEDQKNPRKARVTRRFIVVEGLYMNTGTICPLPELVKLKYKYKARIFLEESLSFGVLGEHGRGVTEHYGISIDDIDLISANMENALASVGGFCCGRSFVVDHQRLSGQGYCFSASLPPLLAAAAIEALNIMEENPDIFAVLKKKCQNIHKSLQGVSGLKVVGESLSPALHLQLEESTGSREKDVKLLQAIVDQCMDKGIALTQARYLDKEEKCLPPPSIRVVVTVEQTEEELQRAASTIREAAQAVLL
T1 sequence (P97363 1-560): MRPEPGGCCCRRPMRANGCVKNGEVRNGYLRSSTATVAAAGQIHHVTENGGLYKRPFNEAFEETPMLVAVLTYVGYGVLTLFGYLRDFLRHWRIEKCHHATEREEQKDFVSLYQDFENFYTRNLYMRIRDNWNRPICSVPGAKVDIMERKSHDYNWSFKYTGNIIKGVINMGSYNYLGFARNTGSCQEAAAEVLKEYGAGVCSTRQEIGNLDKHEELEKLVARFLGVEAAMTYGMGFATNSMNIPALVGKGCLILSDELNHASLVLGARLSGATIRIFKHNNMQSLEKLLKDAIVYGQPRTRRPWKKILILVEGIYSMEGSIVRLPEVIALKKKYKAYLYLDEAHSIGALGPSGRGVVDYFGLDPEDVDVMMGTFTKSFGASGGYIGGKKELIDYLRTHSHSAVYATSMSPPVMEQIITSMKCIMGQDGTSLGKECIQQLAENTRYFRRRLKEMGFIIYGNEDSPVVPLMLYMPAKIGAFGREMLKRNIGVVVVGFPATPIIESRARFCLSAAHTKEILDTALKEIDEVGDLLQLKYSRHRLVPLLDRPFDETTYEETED
T1 sequence (Q8R207 1-71 partner): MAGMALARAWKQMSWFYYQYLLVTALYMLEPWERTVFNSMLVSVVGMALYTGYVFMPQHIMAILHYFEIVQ
Description: Tissue SPT activity assay, small intestine homogenate of treated mice. Format: in vivo. The conditions noted are these: chow diet plus myriocin for 3 weeks, vs chow controls. On the procedure: FIGS. 1A-1C depict three graphical representations of SPT deficiency decreased SPT activity in mouse small intestine. SPT activity of small intestine homogenate was measured with […] and palmitoyl-coenzyme A as substrates. TLC was performed to separate the product, 3-keto-dihydrosphingosine (KDS, Inset). KDS band was scanned. In FIG. 1A, wildtype (WT) mice fed chow diet or chow diet plus myriocin. In FIG. 1B, apoE KO (knockout)
Mice and diet: Male C57BL/6J and apoE KO (Apolipoprotien E knockout) mice with a C57BL/6J background were obtained from the Jackson Laboratory (Bar Harbor, Me.). Sptlc1 heterozygous KO mice with a C57BL/6 background were created and bred in the inventors' laboratory. Myriocin was mixed with a chow diet. […] The myriocin dose was chosen from a previous dose-dependent experiment with apoE-KO mice. Controls consisted of WT or apoE KO mice fed a chow diet (n=6). Sptlc1 heterozygous KO (Sptlc1^+/−)(n=6) and WT mice were also fed a chow diet.
Tissue SPT activity assay: Mouse small intestine (0.2 g) was homogenized in 0.5 ml of 50 mM Tris-HCl, pH 7.4, 5 mM EDTA, and 250 mM sucrose. SPT activity in the homogenates was measured with [^14C]-serine and palmitoyl-coenzyme A for substrates, as previously described (22), which is incorporated herein by reference in its entirety. […]

The next assay concerns ABCG5. As to the kind of experiment: Western blot of small intestine homogenates, ABCG5. It is filed as in vivo, mouse. The settings on record: WT and apoE KO mice, compared with nontreated animals. On the procedure: (§1) FIG. 8 depicts that SPT deficiency decreased NPC1L1 and ABCA1, and increased ABCG5 in mouse small intestine. Tissue homogenates were prepared as described in Methods, and equal amounts of homogenates from each mouse were pooled in each group (n=5). A total of 50 microg pooled sample from each group was immunoblotted with antibodies against NPC1L1, ABCA1, and ABCG5. Immunoblots of beta (β)-actin were used as a loading control.
(§2) Preparation and Western blot analysis of small intestine homogenates: A total of 50-100 mg of small intestine sample was homogenized and lysed proteins were immunoblotted, as previously described, (3) with a polyclonal rabbit antihuman NPC1L1 antiserum 69B, a polyclonal rabbit antimouse ABCG5 antiserum, a polyclonal antimouse ABCA1 antibody, and a monoclonal mouse anti-(beta)β-actin antibody.
(§3) Next, Western blot measurements of NPC1L1 and ABCG5/G8 were completed, where the measurement were located in apical membranes of the enterocytes. […] Also, ABCA1 was measured, which is located in the basal membranes of the enterocytes and is involved in cholesterol secretion.
For orientation: In western blotting, separated proteins are transferred to a membrane and probed.

In a further assay the test system is ABCA1. Description: Western blot of small intestine homogenates, ABCA1. The conditions noted are these: SPT-deficient small intestines (myriocin-treated, FIG. 6A) compared with controls. It is filed as in vivo, mouse. On the procedure:
as §1, §2, §3

The structures appear in SMILES notation.

For the molecule `CCCCCCC(=O)CCCCCC/C=C/C[C@@H](O)[C@H](O)[C@@](N)(CO)C(=O)O` [Myriocin, myriocin], the “less SPT activity than controls in the small intestine” value turned out to be 60% in assay [1] (WT mice) and 65% in assay [1] (apoE KO mice). In addition, the “ABCG5 protein mass in small intestine” value in the assay with ABCG5 is recorded as “increased”. Moreover, in the assay on ABCA1, the “ABCA1 protein in small intestine” value was “decreased”.

For the origin of these results see patent US20090264528A1, “SERINE PALMITOYLCOA TRANSFERASE (SPT) INHIBITION BY MYRIOCIN OR GENETIC DEFICIENCY DECREASES CHOLESTEROL ABSORPTION” (The Research Foundation of State University of New York, priority 2008, published 2009).
